Data: patent US20070014727A1, “Contrast media for nuclear spin tomography with use of the overhauser effect” (priority 2005, published 2007)

Key:
Format in all cases: physicochemical
[1] = Relaxometric measurement of proton relaxivity; details: aqueous solution, spin concentration 6 μm, 37° C., about 15 mT (600 kHz)
Description: Substance (III) has a relaxivity r1≅47 mM^−1s^−1 (compared to the trityl derivatives with relaxivity values of between 0.14 mM^−1s^−1 and 0.44 mM^−1s^−1 [ii], and [iii]) in aqueous solution with a spin concentration of 6 μm at a solvent temperature of 37° C. This unexpectedly high value is present at a magnetic field strength of about 15 mT, which corresponds to a radiofrequency of 600 kHz and thus to the conditions of very low magnetic field strength that are necessary for OMRI.

[2] = Electron spin relaxation times by pulsed spin-echo EPR (X-band) and CW EPR line widths (L-band) in liquid solution; details: pulsed spin-echo EPR in X-band (9.5 GHz), CW EPR line widths in L-band (1.1 GHz)
From the text: The substance N@C63(COOH)6 (III) according to the invention has long spin-relaxation times of the unpaired electron. It was possible to measure very long electronic relaxation times T1e≅150 μs and T2e≅22 μs in liquid solution, which are longer by at least one order of magnitude than that of the […], (see FIG. 4) with pulsed spin-echo EPR measurements in X-band (9.5 GHz EPR larmor frequency) and from CW EPR line widths in the L-band (1.1 GHz of EPR larmor frequency). From [ii] Table 3, page 8, in isotonic NaCl solution at 37° C.: “predeuterated trityl”: T1e≅13 μs, T2e≅8 μs; “deuterated hydroxy trityl”: T1e≅11 μs, T2e≅8 μs, “symmetrical trityl”: T1e≅9 μs, T2e≅9 μs.

[3] = EPR measurement of oxygen sensitivity (EPR line widening after flushing with oxygen); details: for widening of the EPR line after the solution is flushed with oxygen: in toluene, reversible

Row | relaxivity r1 [1] [mM⁻¹ s⁻¹] | electronic relaxation time T1e [2] [μs] | electronic relaxation time T2e [2] [μs] | oxygen-sensitivity [3] | widening of the EPR line after the solution is flushed with oxygen [3] | Substance
1 | ~47 | ~150 | ~22 |  |  | N@C63 (COONa)6 [III]
2 |  |  |  | elevated | 20 × | P@C60 [IX]
3 |  |  |  | low | does not occur | N@C60 [I]
